Patent US10821120B2, “Method for controlling neuroinflammation” (N.V. NUTRICIA, priority 2016, dated 2020)

Experiments:
[1] = tested on: LPS-stimulated BV-2 cells; test: Griess assay (nitric oxide release) from LPS-activated BV-2 microglia; assay type: cell-based, mouse; settings: vitamin D 1 μg/ml, DHA 20 μM; for NO release as percentage of the NO released by cells stimulated only with LPS: Example 1, high non-toxic concentrations: vitamin A 1.75 μM, EPA 20 μM, 24 h pretreatment, then 24 h with LPS 50 ng/ml plus same nutrients, LPS control = 100%; for effect on LPS-induced NO release (in words): Example 1 concentrations: vitamin B6 29 μM, folic acid 24 μM, vitamin B12 0.2 μM, vitamin A 1.75 μM, versus LPS control
Excerpt: (§1) BV-2 cell cultures: BV-2 cells were obtained from IRCCS (Azienda Ospedaliera Universitaria San Martino—IST Istituto Nazionale per la Ricerca sul Cancro, Genova, Italy). BV-2 cell lines are immortalized cell lines derived from C57bl/6 mouse. These are considered to closely resemble the physiology of primary microglia cells and form a well-established model for investigation in vitro (Henn et al., ALTEX, 2009, 26, 83-94). Lipopolysaccharide (LPS), an endotoxin derived from the cell wall of gram negative bacteria, is the most widely used agent to activate immune cells. Cells were cultured in Dulbecco's Modified Eagle Medium (DMEM, Gibco) supplemented with 10% of heat-inactivated fetal bovine serum (Invitrogen), 10,000 units/ml penicillin (Gibco), 10,000 μg/ml streptomycin (Gibco) and 200 mM L-glutamine (Gibco) and maintained at 37° C. and 5% CO2. Twenty-four hours before the experiment, cells were plated on 96 well plates (Corning) at a cell density of approximately 20,000 cells/well and maintained in DMEM supplemented with 2% fetal bovine serum, 10,000 units/ml penicillin, 10,000 μg/ml streptomycin and 200 mM L-glutamine, for the duration of the experiment.
(§2) Cell viability: Cell proliferation and viability were assessed with 2,3-bis(2-methoxy-4-nitro-5-sulfophenyl)-2H-tetrazolium-5-carboxanilide inner salt (XTT, Sigma) at a concentration of 1 mg/ml. Phenazine methosulfate (PMS, Sigma) at a concentration of 200 mg/ml was added as an electron coupling reagent. The XTT/PMS solution in sterile water (100 μl) was added to each well. After 2 h, the absorbance was measured at 450 nm (and 690 nm as a reference). The absorbance was corrected for the number of cells. The viability test was repeated for each experiment as a within plate control.
Griess assay (nitric oxide release): Cells were treated for 24 h with different combinations of nutrients. This treatment was followed by exchanging the medium for fresh medium with LPS (50 ng/ml) combined with the same nutrients. After incubation for 24 h, media were collected for measurement of NO release. The stable product of NO released by the BV-2 cells is NO2^−. The concentration of NO2^− was measured with a Griess assay Kit (Promega) according to the manufacturer's instructions. Data were corrected for cell viability (the viability of untreated control cells represented 100% of viability). Data are represented as percentage of the NO released by cells stimulated only with LPS. To assess variability between the tests, data from the treatment with LPS alone were pooled and an average release between experiments was calculated for NO. For treatment with LPS alone, the NO release is represented as the percentage of the average release between experiments.
(§3) Statistical analysis: All experiments were performed at least in triplicate. The data are presented as dots representing means and bars representing standard error mean (SEM). Due to the small sample size, non-parametric statistical tests were used. Data were analyzed with the Kruskal-Wallis H test and if the statistical significance was reached, Mann Whithey U test with Bonferroni-Holm post-hoc correction to allow multiple comparisons was performed. A difference was considered statistically significant when the probability (p) was <0.05.
(§4) BV-2 cells were pretreated for 24 h with different nutrients: (I) vitamin A (1.75 μM); (II) vitamin D (1 μg/ml); (III) DHA (20 μM); (IV) EPA (20 μM); (V) vitamin B6 (29 μM, including 19 μM already present in the culture medium); (VI) folic acid (24 μM, including 9 μM already present in the culture medium); (VII) vitamin B12 (0.2 μM). This was followed by 24 h incubation with LPS (50 ng/ml) combined with the same nutrients. Media were collected for measurement of NO release with the Griess assay (FIG. 1A) and IL-6 release with ELISA (FIG. 1B). NO and IL-6 levels are presented as the percentage of the concentration produced by cells treated with LPS alone (LPS control, dashed line).

[2] = tested on: LPS-stimulated BV-2 cells; test: ELISA (IL-6) release from LPS-activated BV-2 microglia; assay type: cell-based, mouse; settings: vitamin D 1 μg/ml, DHA 20 μM; for IL-6 release as percentage of the IL-6 released by cells stimulated only with LPS: Example 1, high non-toxic concentrations: vitamin A 1.75 μM, EPA 20 μM, 24 h pretreatment, then 24 h with LPS 50 ng/ml plus same nutrients, LPS control = 100%; for effect on LPS-induced IL-6 release (in words): Example 1 concentrations: vitamin B6 29 μM, folic acid 24 μM, vitamin B12 0.2 μM, vitamin A 1.75 μM, versus LPS control
Excerpt: as §1, §2
ELISA (IL-6): Cells were treated for 24 h with different combinations of nutrients. Subsequently, the medium was removed and cells were incubated for 24 h in fresh medium with LPS (50 ng/ml) combined with the same nutrients. Media were collected for measurement of IL-6 release. Collected samples were stored at −80° C. until further analysis. The cytokine levels were assessed using ELISA MAX™ Deluxe from Biolegend according to the manufacturer's protocol. Data were corrected for cell viability. Data are represented as percentage of the IL-6 released by cells stimulated only with LPS. To assess variability between the tests, data from the treatment with LPS alone were pooled and an average release between experiments was calculated for IL-6. For LPS alone treatment the IL-6 release is represented as the percentage of the average release between experiments.
as §3
as §4, with “line). All graphs represent the results from 4 independent experiments (mean±SEM).” for “line).”

Molecule | NO release as percentage of the NO released by cells stimulated only with LPS [1] [%] | IL-6 release as percentage of the IL-6 released by cells stimulated only with LPS [2] [%] | effect on LPS-induced NO release (in words) [1] | effect on LPS-induced IL-6 release (in words) [2]
CC/C=C\C/C=C\C/C=C\C/C=C\C/C=C\C/C=C\CCC(=O)O [DHA, cis-4,7,10,13,16,19-docosahexaenoic acid] | 68 | 68 | – | –
CC/C=C\C/C=C\C/C=C\C/C=C\C/C=C\CCCC(=O)O [EPA, cis-5,8,11,14,17-eicosapentaenoic acid] | 80 | 70 | – | –
N[C@@H](CS)C(=O)O [L-cysteine] | – | – | did not cause any significant effect | did not cause any significant effects
N[C@@H](Cc1c[nH]c2ccccc12)C(=O)O [L-tryptophan] | – | – | did not cause any significant effect | did not cause any significant effects
Cc1ncc(CO)c(CO)c1O.Cl [Vitamin B6, vitamin B6] | – | – | did not cause any significant effect | did not cause any significant effects
Nc1nc2ncc(CNc3ccc(C(=O)N[C@@H](CCC(=O)O)C(=O)O)cc3)nc2c(=O)[nH]1 [Vitamin B9, folic acid] | – | – | did not cause any significant effect | did not cause any significant effects
C=C1CC[C@H](O)C/C1=C/C=C1\CCC[C@]2(C)[C@@H]([C@H](C)CCCC(C)C)CC[C@@H]12 [Vitamin D, vitamin D3] | 43 | 43 | – | –
vitamin A | 39 | 42 | – | –
vitamin B12 | – | – | did not cause any significant effect | did not cause any significant effects
